Data as given in patent US12338256B2, “Aza-tetracyclic oxazepine compounds and uses thereof” (Genentech, Inc., priority 2022, dated 2025).
Read-outs that look alike come from different tables or passages of the source.

Assays:
Assay type in all cases: cell-based
[1] = tested on: H1975 (KRAS wild type human lung adenocarcinoma cell line); assay: KRAS 3D-Cell Proliferation Assay, H1975 (Example 503); conditions: Homo sapiens, NCI-H1975, 168 h, H1975 3D culture, 7 days, CellTiter-Glo 3D; read-out: Prolif H1975 3D ATP IC50
Outline: (§1)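 IC50s come from a 4-parameter Hill fit of luminescence (CellTiter-Glo 3D) normalized between DMSO (0%) and 1 μM staurosporine (100%). Cells in low-attachment 3D culture, RPMI-1640 with 10% FBS, received serial compound dilutions (0.3% DMSO) after overnight and were incubated 7 days at 37 °C.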

[2] = tested on: HPAC (homozygous mutant KRAS G12D human pancreatic cell line); assay: KRAS 3D-Cell Proliferation Assay, HPAC (Example 503); conditions: Homo sapiens, 168 h, HPAC 3D culture, 7 days, CellTiter-Glo 3D, read-out: Prolif HPAC 3D ATP IC50
Outline: as §1

[3] = tested on: AsPC-1 (homozygous mutant KRAS G12D human pancreatic cell line); assay: KRAS 3D-Cell Proliferation Assay, AsPC-1 (Example 503); conditions: AsPC-1 3D culture, 7 days, CellTiter-Glo 3D, read-out: Prolif AsPC-1 3D ATP IC50
Protocol: Example 503: KRAS 3D-Cell Proliferation Assays. Cellular potencies of compounds are assessed by evaluating inhibition of proliferation in 3D cultures of homozygous mutant KRAS G12D human pancreatic cell lines (AsPC-1 and HPAC) as compared to a KRAS wild type human lung adenocarcinoma cell line (PC-9 and/or H1975). Cells are seeded into 384-well black round-bottom, ultra-low attachment assay plates in 50 uL cell growth medium (RPMI-1640 with 10% fetal bovine serum and 2 mM L-glutamine). After overnight incubation at 37° C. and 5% CO2, compounds solubilized in DMSO are added as dilution series to the wells in a total volume of 150 nL (0.3% DMSO final). The cells are incubated for 7 days at 37° C. and 5% CO2. Cell proliferation is quantitated by addition of 40 uL/well of CellTiter-GloÒ 3D (Promega), and the well contents are mixed 20× at high speed using liquid handling automation workstation (Bravo with 384-well head) and centrifuged at 1500 rpm for 2 minutes to eliminate bubbles. This reagent in combination with mechanical disruption releases the cellular ATP to promote activity in a luciferase-based enzyme/substrate chemiluminescent detection system. After a 30-minute incubation under ambient conditions with shaking and an additional 10 minutes without shaking, the luminescence is read on a plate reader (e.g., EnVision [PerkinElmer]). The results are normalized to percent inhibition based on the following control samples: DMSO (0% inhibition) and 1 μM staurosporine (100% inhibition). The normalized luminescence results are plotted against compound concentration, and the data are fit to a 4-parameter Hill equation to determine the IC50 values.

Cc1c(F)c(N)c(F)c(-c2nc3c4c(nc(OC[C@@]56CCCN5CC5(CC5(F)F)C6)nc4c2F)N2C[C@H]4CC[C@H](N4)[C@H]2[C@H](C)O3)c1C(F)(F)F (stereo partly drawn) [Compound 225, 3-((5S,5aS,6S,9R)-12-(((7′S)-2,2-Difluorodihydro-1′H,3′H-spiro[cyclopropane-1,2′-pyrrolizin]-7a′(5′H)-yl)methoxy)-1-fluoro-5-methyl-5a,6,7,8,9,10-hexahydro-5H-4-oxa-3,10a,11,13,14-pentaaza[6,9]methanonaphtho[1,8-ab]heptalene-2-yl)-2,6-difluoro-5-methyl-4-(trifluoromethyl)aniline] showed an IC50 [1] of 561 nM, an IC50 ([2]; HPAC) of 1.19 nM and an IC50 ([3]; Homo sapiens, ASPC1, 168 h) of 2.9 nM.
Cc1c(F)c(N)cc(-c2nc3c4c(nc(OCC5COCC6CCCN65)nc4c2F)N2CC4CCC(N4)C2C(C)O3)c1C(F)(F)F (single isomer, unassigned) [121 (isomer 2)] gave an IC50 ([3]; Homo sapiens, ASPC1, 168 h) of 41 nM.
Cc1c(F)c(N)cc(-c2nc3c4c(nc(OC[C@@H]5[C@@H]6CCN5CCO6)nc4c2F)N2C[C@H]4CC[C@H](N4)[C@H]2[C@H](C)O3)c1C(F)(F)F [Compound 136, 5-((5S,5aS,6S,9R)-12-(((5S,8R)-4-Oxa-1-azabicyclo[3.2.1]octan-8-yl)methoxy)-1-fluoro-5-methyl-5a,6,7,8,9,10-hexahydro-5H-4-oxa-3,10a,11,13,14-pentaaza-6,9-methanonaphtho[1,8-ab]heptalen-2-yl)-2-fluoro-3-methyl-4-(trifluoromethyl)aniline] showed an IC50 [1] of 12300 nM, an IC50 ([2]; HPAC) of 67.5 nM and an IC50 ([3]; Homo sapiens, ASPC1, 168 h) of 200 nM.
In the case of C[C@@H]1Oc2nc(-c3cc(N)c(F)c(F)c3CC(F)(F)F)c(F)c3nc(OC[C@@]45CCCN4C[C@H](F)C5)nc(c23)N2C[C@H]3CC[C@H](N3)[C@@H]12 [Compound 183, 2,3-Difluoro-5-((5S,5aS,6S,9R)-1-fluoro-12-(((2R,7aS)-2-fluorotetrahydro-1H-pyrrolizin-7a(5H)-yl)methoxy)-5-methyl-5a,6,7,8,9,10-hexahydro-5H-4-oxa-3,10a,11,13,14-pentaaza-6,9-methanonaphtho[1,8-ab]heptalene-2-yl)-4-(2,2,2-trifluoroethyl)aniline], the IC50 [1] is reported as 852 nM, the IC50 ([2]; HPAC) is reported as 2.32 nM and the IC50 ([3]; Homo sapiens, ASPC1, 168 h) is reported as 4.2 nM.
Cc1c(F)c(N)cc(-c2nc3c4c(nc(OC[C@]5(CN6CC7(COC7)C6)CC5(F)F)nc4c2F)N2C[C@H]4CC[C@H](N4)[C@H]2[C@H](C(F)(F)F)O3)c1C(F)(F)F [255 a] showed an IC50 [3] of 6.6 nM.
Compound Cc1c(F)c(N)cc(-c2nc3c4c(nc(OCC56CCN5CC(F)(F)C6)nc4c2F)N2C[C@H]4CC[C@H](N4)[C@H]2[C@H](C(F)(F)F)O3)c1C(F)(F)F (single isomer, unassigned) [263 (diast. 1)] has an IC50 ([3]; Homo sapiens, ASPC1, 168 h) of 7.1 nM.
With Cc1cc(N)c(F)c(-c2nc3c4c(nc(OCC56CCN5CC(F)(F)C6)nc4c2F)N2C[C@H]4CC[C@H](N4)[C@H]2[C@H](C)O3)c1 (stereo in doubt) [Compound 23, 3-((5S,5aS,6S,9R)-12-((3,3-difluoro-1-azabicyclo[3.2.0]heptan-5-yl)methoxy)-1-fluoro-5-methyl-5a,6,7,8,9,10-hexahydro-5H-4-oxa-3,10a,11,13,14-pentaaza-6,9-methanonaphtho[1,8-ab]heptan-2-yl)-2-fluoro-5-methylaniline] the IC50 [3] was ≥ 20000 nM and the IC50 ([3]; Homo sapiens, ASPC1, 168 h) was 14000 nM.
For Cc1c(F)c(N)cc(-c2nc3c4c(nc(OCC56CCCN5CC(F)C6F)nc4c2F)N2C[C@H]4CC[C@H](N4)[C@H]2[C@H](C)O3)c1C(F)(F)F (single isomer, unassigned) [143 (isomer 2)], the IC50 ([3]; Homo sapiens, ASPC1, 168 h) was 4.1 nM.
C[C@@H]1Oc2nc(-c3c(Cl)c(N)c(F)c(F)c3C(F)(F)F)c(F)c3nc(OC[C@@]45CCCN4C[C@H](F)C5)nc(c23)N2C[C@H]3CC[C@H](N3)[C@@H]12 (atropisomer, axis not shown; (aS)) [Compound 106, 2-Chloro-5,6-difluoro-3-((5S,5aS,6S,9R)-1-fluoro-12-(((2R,7aS)-2-fluorotetrahydro-1H-pyrrolizin-7a(5H)-yl)methoxy)-5-methyl-5a,6,7,8,9,10-hexahydro-5H-4-oxa-3,10a,11,13,14-pentaaza-6,9-methanonaphtho[1,8-ab]heptalen-2-yl)-4-(trifluoromethyl)aniline] gave an IC50 [1] of 770 nM and an IC50 ([3]; Homo sapiens, ASPC1, 168 h) of 5.4 nM.
Compound Cc1cc(N)c(F)c(-c2nc3c4c(ncnc4c2Cl)N2C[C@H]4CC[C@H](N4)[C@H]2[C@H](C)O3)c1C(F)(F)F (atropisomer, axis not shown) [Compound 95, 3-((5S,5aS,6S,9R)-1-chloro-5-methyl-5a,6,7,8,9,10-hexahydro-5H-4-oxa-3,10a,11,13,14-pentaaza-6,9-methanonaphtho[1,8-ab]heptalen-2-yl)-2-fluoro-5-methyl-4-(trifluoromethyl)aniline] has an IC50 ([3]; Homo sapiens, ASPC1, 168 h) of 200 nM.
Cc1c(F)c(N)cc(-c2nc3c4c(nc(OCC56CCCC5N(C)CCC6)nc4c2F)N2C[C@H]4CC[C@H](N4)[C@H]2[C@H](C)O3)c1C(F)(F)F (single isomer, unassigned) [126 (isomer 1)] showed an IC50 ([3]; Homo sapiens, ASPC1, 168 h) of 0.6 nM.
For Cc1cc(N)c(F)c(-c2nc3c4c(nc(OC[C@@H]5CC[C@H]6COCCN65)nc4c2F)N2C[C@H]4CC[C@H](N4)[C@H]2[C@H](C)O3)c1Cl [Compound 101, 4-Chloro-2-fluoro-3-((5S,5aS,6S,9R)-1-fluoro-12-(((6S,8aS)-hexahydro-1H-pyrrolo[2,1-c][1,4]oxazin-6-yl)methoxy)-5-methyl-5a,6,7,8,9,10-hexahydro-5H-4-oxa-3,10a,11,13,14-pentaaza-6,9-methanonaphtho[1,8-ab]heptalen-2-yl)-5-methylaniline], the IC50 [1] was 8490 nM and the IC50 ([2]; HPAC) was 41.5 nM.
Compound Cc1nc(N)cc(-c2nc3c4c(nc(OCC5(CN6CC[C@H]7OCC[C@H]76)CC5)nc4c2F)N2C[C@H]4CC[C@H](N4)[C@H]2[C@H](C)O3)c1C(F)(F)F [Compound 268, 4-((5S,5aS,6S,9R)-1-fluoro-12-((1-(((3aR,6aR)-hexahydro-4H-furo[3,2-b]pyrrol-4-yl)methyl)cyclopropyl)methoxy)-5-methyl-5a,6,7,8,9,10-hexahydro-5H-4-oxa-3,10a,11,13,14-pentaaza-6,9-methanonaphtho[1,8-ab]heptalene-2-yl)-6-methyl-5-(trifluoromethyl)pyridin-2-amine] has an IC50 [1] of 1700 nM and an IC50 ([2]; HPAC) of 2.17 nM.
In the case of Cc1nc(N)c(F)c(-c2nc3c4c(nc(OC[C@@]56CCCN5C[C@H](F)C6)nc4c2F)N2C[C@H]4CC[C@H](N4)[C@H]2[C@H](C(F)(F)F)O3)c1C(F)(F)F [Compound 256, 3-Fluoro-4-((5R,5aS,6S,9R)-1-fluoro-12-(((2R,7aS)-2-fluorotetrahydro-1H-pyrrolizin-7a(5H)-yl)methoxy)-5-(trifluoromethyl)-5a,6,7,8,9,10-hexahydro-5H-4-oxa-3,10a,11,13,14-pentaaza-6,9-methanonaphtho[1,8-ab]heptalen-2-yl)-6-methyl-5-(trifluoromethyl)pyridin-2-amine], the IC50 [1] is reported as 93.4 nM and the IC50 [2] is reported as 13.9 nM.
For Cc1c(F)c(N)cc(-c2nc3c4c(nc(OC[C@@H](F)CN5CC(CO)(CO)C5)nc4c2F)N2C[C@H]4CC[C@H](N4)[C@H]2[C@H](C)O3)c1C(F)(F)F [Compound 146], the IC50 [1] was 20000 nM and the IC50 ([2]; HPAC) was 1740 nM.
Cc1c(F)c(N)cc(-c2nc3c4c(nc(OCC5CN(CC(F)F)C5)nc4c2F)N2C[C@H]4CC[C@H](N4)[C@H]2[C@H](C)O3)c1C(F)(F)F [Compound 128, 5-((5S,5aS,6S,9R)-12-((1-(2,2-Difluoroethyl)azetidin-3-yl)methoxy)-1-fluoro-5-methyl-5a,6,7,8,9,10-hexahydro-5H-4-oxa-3,10a,11,13,14-pentaaza-6,9-methanonaphtho[1,8-ab]heptalen-2-yl)-2-fluoro-3-methyl-4-(trifluoromethyl)aniline] showed an IC50 [1] of 5060 nM and an IC50 ([2]; HPAC) of 51.5 nM.
Cc1nc(N)cc(-c2nc3c4c(nc(OC[C@@]56CCCN5C[C@H](F)C6)nc4c2F)N2C[C@H]4CC[C@H](N4)[C@H]2[C@H](C)O3)c1CC(F)(F)F [Compound 185, 4-((5S,5aS,6S,9R)-1-Fluoro-12-(((2R,7aS)-2-fluorotetrahydro-1H-pyrrolizin-7a(5H)-yl)methoxy)-5-methyl-5a,6,7,8,9,10-hexahydro-5H-4-oxa-3,10a,11,13,14-pentaaza-6,9-methanonaphtho[1,8-ab]heptalene-2-yl)-6-methyl-5-(2,2,2-trifluoroethyl)pyridin-2-amine] was tested, and the IC50 [1] was 4930 nM and the IC50 ([2]; HPAC) was 32 nM.
